Data set [1] concerns human MDR1 P-gp. Description: Assay D: efflux in MDCK cells transfected with the human MDR1 gene. It counts as in vitro ADME, canine. Particulars: dog; MDCK-MDR1, pH 7.4, 37° C.; read-out: Assay D: MDCK efflux ratio (BA/AB). The procedure: The MDCK assay provides information on the potential of a compound to pass the blood brain barrier. Permeability measurements across polarized, confluent MDCK-MDR1 cell monolayers grown on permeable filter supports are used as an in vitro absorption model: apparent permeability coefficients (PE) of the compounds across the MDCK-MDR1 cell monolayers are measured (pH 7.4, 37° C.) in apical-to-basal (AB) and basal-to-apical (BA) transport direction.
The AB permeability (PEAB) represents drug absorption from the blood into the brain and the BA permeability (PEBA) drug efflux from the brain back into the blood via both, passive permeability as well as active transport mechanisms mediated by efflux and uptake transporters that are expressed on the MDCK-MDR1 cells, predominantly by the overexpressed human MDR1 P-gp. Identical or similar permeabilities in both transport directions indicate passive permeation, vectorial permeability points to additional active transport mechanisms. Higher PEBA than PEAB (PEBA/PEAB>5) indicates the involvement of active efflux mediated by MDR1 P-gp, which might compromises the goal to achieve sufficient brain exposure. Therefore this assay provides valuable support for selection of compounds applicable for further in vivo testing. High permeability not limited by efflux at the blood brain barrier is a favourable characteristic for compounds that are to be used for drugs acting primarily in the CNS
D. Assessment of Efflux in Madin-Darby Canine Kidney (MDCK) Cells Transfected with the Human MDR1 Gene
Apparent permeability coefficients (PE) of the compounds across the MDCK-MDR1 cell monolayers are measured (pH 7.4, 37° C.) in apical-to-basal (AB) and basal-to-apical (BA) transport direction. AB permeability (PEAB) represents drug absorption from the blood into the brain and BA permeability (PEBA) drug efflux from the brain back into the blood via both passive permeability as well as active transport mechanisms mediated by efflux and uptake transporters that are expressed on the MDCK-MDR1 cells, predominantly by the overexpressed human MDR1 P-gp. The compounds are assigned to permeability/absorption classes by comparison of the AB permeabilities with the AB permeabilities of reference compounds with known in vitro permeability and oral absorption in the human. Identical or similar permeabilities in both transport directions indicate passive permeation, vectorial permeability points to additional active transport mechanisms. Higher PEBA than PEAB indicates the involvement of active efflux mediated by MDR1 P-gp. Active transport is concentration-dependently saturable.
MDCK-MDR1 cells (1-2×10 e5 cells/1 cm2 area) are seeded on filter inserts (Costar transwell polycarbonate or PET filters, 0.4 μm pore size) and cultured (DMEM) for 7 days. Subsequently, the MDR1 expression is boosted by culturing the cells with 5 mM sodium butyrate in full medium for 2 days. Compounds are dissolved in appropriate solvent (like DMSO, 1-20 mM stock solutions). Stock solutions are diluted with HTP-4 buffer (128.13 mM NaCl, 5.36 mM KCl, 1 mM MgSO4, 1.8 mM CaCl2, 4.17 mM NaHCO3, 1.19 mM Na2HPO4×7H2O, 0.41 mM NaH2PO4×H2O, 15 mM HEPES, 20 mM glucose, 0.25% BSA, pH 7.4) to prepare the transport solutions (0.1-300 μM compound, final DMSO<=0.5%). The transport solution (TL) is applied to the apical or basolateral donor side for measuring A-B or B-A permeability (3 filter replicates), respectively. The receiver side contains the same buffer as the donor side. Samples are collected at the start and end of experiment from the donor and at various time intervals for up to 2 hours also from the receiver side for concentration measurement by HPLC-MS/MS or scintillation counting. Sampled receiver volumes are replaced with fresh receiver solution.

Data set [2] is described as follows: Assay C: metabolic stability in human liver microsomes (Human MST). It counts as in vitro ADME. Particulars: pH 7.6, pooled human liver microsomes, 37° C., read-out: Assay C: Human MST t1/2. The procedure:
C. Assessment of Metabolic Stability in Human Liver Microsomes (Human MST)
The metabolic stability of the compounds according to the invention may be investigated as follows:
The metabolic degradation of the test compound is assayed at 37° C. with pooled human liver microsomes. The final incubation volume of 100 μL per time point contains TRIS buffer pH 7.6 at room temperature (0.1 M), MgCl2 (5 mM), microsomal protein (1 mg/mL) and the test compound at a final concentration of 1 μM. Following a short pre-incubation period at 37° C., the reactions are initiated by addition of beta-nicotinamide adenine dinucleotide phosphate, reduced form (NADPH, 1 mM), and terminated by transferring an aliquot into solvent after different time points. After centrifugation (10000 g, 5 min), an aliquot of the supernatant is assayed by LC-MS/MS for the amount of parent compound. The half-life (t1/2) is determined by the slope of the semi-logarithmic plot of the concentration-time profile.
For orientation: Liver microsomes are a subcellular fraction often used to study metabolism.

Data set [3] addresses T1, OX2R (Homo sapiens, UniProt O43614).
T1 sequence (O43614 1-444): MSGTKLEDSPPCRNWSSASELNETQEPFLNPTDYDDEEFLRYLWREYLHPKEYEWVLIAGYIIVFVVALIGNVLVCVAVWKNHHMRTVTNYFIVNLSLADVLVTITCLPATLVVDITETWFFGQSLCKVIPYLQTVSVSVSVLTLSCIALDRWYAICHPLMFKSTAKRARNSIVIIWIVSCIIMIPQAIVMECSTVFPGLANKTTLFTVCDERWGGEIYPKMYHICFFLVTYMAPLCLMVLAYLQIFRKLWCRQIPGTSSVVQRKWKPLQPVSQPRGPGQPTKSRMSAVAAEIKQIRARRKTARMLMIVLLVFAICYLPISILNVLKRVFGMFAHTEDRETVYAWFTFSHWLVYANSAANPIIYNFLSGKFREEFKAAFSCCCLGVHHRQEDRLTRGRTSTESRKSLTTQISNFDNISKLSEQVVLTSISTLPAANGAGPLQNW
Particulars: cited from earlier work.

Bounds are passed on as bounds.

For `CC[C@@H](CNc1ncc(C(F)(F)F)cn1)N(C)C(=O)c1nc(C)ccc1-c1ncccn1` [Ex 84 in WO2016/ 034882, reference compound], the efflux ratio in data set [1] was below 3.
As a reminder, the IC50 is the concentration that gives 50% inhibition. As to `CC[C@@H](CNc1ncc(C(F)(F)F)cn1)N(C)C(=O)c1c(F)cccc1-n1nccn1` [Ex 91 in WO2016/ 034882], in data set [2], the half-life at 1 μM was above 2.17 h. The efflux ratio in data set [1] was below 3. For the same molecule, in data set [3] (as described in WO2016/034882, Table 3), the “OX2R pIC50” value is reported as below 5.1. In data set [3] (corresponds to pIC50 of WO2016/034882, Table 3), the IC50 is at least 7.95 µM.

The values are drawn from US11324724B2, “N-(2,2-difluoroethyl)-N-[(pyrimidinylamino)propanyl]arylcarboxamides” (Boehringer Ingelheim International GmbH, priority 2017, dated 2022).
